One assay concerns the target T1, Adrenergic β2 (Homo sapiens, UniProt P07550).
T1 construct: Adherent H292 cells were removed from tissue culture flasks; endogenous in cells; host or cells: H292 cells
Put plainly: Adrenergic β2 mediated cAMP production in H292 cells. The class given is cell-based. The following applies: for EC50: H292 cells, cAMP by AlphaScreen, 60 minutes at room temperature, rolipram 300 μM, read-out: β2 pEC50 (converted); for β2 Int Act: Intrinsic Activity as a fraction relative to the maximum activity determined for formoterol. In short, it runs like this: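 cAMP accumulation in adherent H292 cells, measured by AlphaScreen and calibrated with cAMP standards. Compounds incubated 60 min at room temperature after 10 min rolipram (final 300 μM; vehicle 1.6% DMSO). pEC50 and intrinsic activity, as a fraction of formoterol's maximum, from four-parameter logistic fit.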
(In general: cAMP levels reflect the balance of adenylyl cyclase and phosphodiesterase activity.)

Assay [1] has as its target T2, recombinant human adrenergic beta 1 receptors (Homo sapiens, UniProt P08588).
T2 construct: purchased Euroscreen
The assay can be described thus: Adrenergic β1 selectivity binding assay ([125I]-Iodocyanopindolol). The following applies: inhibition of [125I]-Iodocyanopindolol (0.036 nM) binding; read-out: β1 bind p IC50 (converted). In short, it runs like this:
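Displacement of [^125I]-Iodocyanopindolol (0.036 nM final) from human β1 receptor membranes, 2 hours at room temperature, pH 7.4 HEPES/EDTA/NaCl buffer. After filtration, scintillation counting; NSB set with 10 μM propranolol and subtracted. Four-parameter logistic fitting gave pIC50.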

The target of assay [2] is T3, recombinant human Dopamine Subtype D2s receptors (Homo sapiens, UniProt P14416).
T3 construct: purchased Perkin Elmer
Put plainly: Dopamine D2 selectivity binding assay ([3H]-spiperone). The following applies: inhibition of [3H]-spiperone (0.16 nM) binding; read-out: D2 bind pIC50 (converted). In short, it runs like this:
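Displacement of [3H]-spiperone (0.16 nM final) from human D2s receptor membranes in pH 7.4 HEPES buffer over 2 h at room temperature, then filtration and scintillation counting. Specific binding taken as vehicle minus 10 μM haloperidol wells. Potency given as pIC50 from a four-parameter logistic curve.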

Counter-ions that a name gives are not always drawn.

T1 sequence (P07550 whole entry): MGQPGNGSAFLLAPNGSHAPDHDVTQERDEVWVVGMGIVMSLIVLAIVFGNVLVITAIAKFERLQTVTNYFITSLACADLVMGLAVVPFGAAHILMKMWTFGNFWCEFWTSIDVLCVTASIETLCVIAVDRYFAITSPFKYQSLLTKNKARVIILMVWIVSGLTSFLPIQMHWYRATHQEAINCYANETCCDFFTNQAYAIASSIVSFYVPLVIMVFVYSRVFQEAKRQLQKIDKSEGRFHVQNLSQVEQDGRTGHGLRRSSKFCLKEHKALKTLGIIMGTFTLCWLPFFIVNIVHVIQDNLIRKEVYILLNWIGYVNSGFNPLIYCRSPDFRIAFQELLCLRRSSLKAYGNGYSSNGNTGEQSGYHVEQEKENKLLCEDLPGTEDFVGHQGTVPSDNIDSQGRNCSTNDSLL
T2 sequence (P08588 whole entry): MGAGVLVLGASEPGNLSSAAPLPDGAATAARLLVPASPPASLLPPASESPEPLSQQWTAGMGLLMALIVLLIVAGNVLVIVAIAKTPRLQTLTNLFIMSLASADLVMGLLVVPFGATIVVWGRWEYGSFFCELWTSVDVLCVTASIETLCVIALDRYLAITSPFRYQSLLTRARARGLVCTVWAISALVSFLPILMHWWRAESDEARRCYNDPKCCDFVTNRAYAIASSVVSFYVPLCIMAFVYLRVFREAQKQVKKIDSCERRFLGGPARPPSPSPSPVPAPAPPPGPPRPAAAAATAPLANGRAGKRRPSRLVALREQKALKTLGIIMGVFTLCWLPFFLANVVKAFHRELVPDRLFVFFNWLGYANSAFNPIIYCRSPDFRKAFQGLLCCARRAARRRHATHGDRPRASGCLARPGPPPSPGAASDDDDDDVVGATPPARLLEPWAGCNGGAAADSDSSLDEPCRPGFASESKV
T3 sequence (P14416 1-414 isoform P14416-2): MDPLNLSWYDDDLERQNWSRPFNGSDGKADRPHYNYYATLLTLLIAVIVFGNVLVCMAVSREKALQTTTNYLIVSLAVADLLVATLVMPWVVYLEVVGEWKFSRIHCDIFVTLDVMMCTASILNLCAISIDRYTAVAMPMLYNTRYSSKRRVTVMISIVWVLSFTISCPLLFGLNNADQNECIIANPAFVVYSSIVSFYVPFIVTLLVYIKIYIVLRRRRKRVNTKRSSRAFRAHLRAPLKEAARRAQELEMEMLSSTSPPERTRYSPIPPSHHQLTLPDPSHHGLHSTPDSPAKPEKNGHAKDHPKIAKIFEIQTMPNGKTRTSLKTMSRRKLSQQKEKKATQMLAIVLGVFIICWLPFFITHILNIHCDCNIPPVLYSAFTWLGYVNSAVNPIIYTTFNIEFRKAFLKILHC

As to `O=C(CCNCCc1ccc(F)cc1F)N(CCNCCc1ccc(O)c2[nH]c(=O)sc12)C1CCCCCC1` [Example 55, N^1-Cycloheptyl-N^3-[2-(2,4-difluorophenyl)ethyl]-N^1-(2-{[2-(4-hydroxy-2-oxo-2,3-dihydro-1,3-benzothiazol-7-yl)ethyl]amino}ethyl)-β-alaninamide bis-trifluoroacetic acid salt], on Adrenergic β2, the EC50 was 10 nM and the “β2 Int Act” value came out at 0.81. Further, in assay [1], the IC50 was 2510 nM. The IC50 in assay [2] is 20 nM.

For `O=C(CCNCCc1cccc(F)c1F)N(CCNCCc1ccc(O)c2[nH]c(=O)sc12)C1CCCCCC1` [Example 56, N^1-Cycloheptyl-N^3-[2-(2,3-difluorophenyl)ethyl]-N^1-(2-{[2-(4-hydroxy-2-oxo-2,3-dihydro-1,3-benzothiazol-7-yl)ethyl]amino}ethyl)-β-alaninamide bis-trifluoroacetic acid salt], the EC50 at Adrenergic β2 was 5.01 nM. For the same compound, the “β2 Int Act” value at Adrenergic β2 was determined as 0.86. In addition, the IC50 is 3160 nM in assay [1] and 31.6 nM in assay [2].

`O=C(CCNCCc1ccc(F)cc1Cl)N(CCNCCc1ccc(O)c2[nH]c(=O)sc12)C1CCCCCC1` [Example 57, N^3-[2-(2-Chloro-4-fluorophenyl)ethyl]-N^1-cycloheptyl-N^1-(2-{[2-(4-hydroxy-2-oxo-2,3-dihydro-1,3-benzothiazol-7-yl)ethyl]amino}ethyl)-β-alaninamide bis-trifluoroacetic acid salt]: on Adrenergic β2, the EC50 is 20 nM and the “β2 Int Act” value is on record as 0.72. In assay [1], the IC50 is 2510 nM. Also, the IC50 in assay [2] is 31.6 nM.

As to `O=C(CCNCCc1cc(F)cc(F)c1)N(CCNCCc1ccc(O)c2[nH]c(=O)sc12)C1CCCCCC1` [Example 58, N^1-Cycloheptyl-N^3-[2-(3,5-difluorophenyl)ethyl]-N^1-(2-{[2-(4-hydroxy-2-oxo-2,3-dihydro-1,3-benzothiazol-7-yl)ethyl]amino}ethyl)-β-alaninamide bis-trifluoroacetic acid salt], the EC50 at Adrenergic β2 was 3.98 nM. The “β2 Int Act” value at Adrenergic β2 came to 0.84. Further, the IC50 is 5010 nM in assay [1] and 158 nM in assay [2].

For `O=C(CCNCCc1ccccc1)N(CCNCCc1ccc(O)c2[nH]c(=O)sc12)CC12CC3CC(CC(C3)C1)C2` [Example 59, N^1-(1-Adamantylmethyl)-N^1-(2-{[2-(4-hydroxy-2-oxo-2,3-dihydro-1,3-benzothiazol-7-yl)ethyl]amino}ethyl)-N^3-(2-phenylethyl)-β-alaninamide bis-trifluoroacetic acid salt], at Adrenergic β2, the EC50 was 5.01 nM and the “β2 Int Act” value is listed as 0.85. Also, the IC50 in assay [1] is 794 nM. The IC50 in assay [2] is 398 nM.

On to `O=C(CCNCCc1cccc(F)c1)N(CCNCCc1ccc(O)c2[nH]c(=O)sc12)CC12CC3CC(CC(C3)C1)C2` [Example 60, N^1-(1-Adamantylmethyl)-N^3-[2-(3-fluorophenyl)ethyl]-N^1-(2-{[2-(4-hydroxy-2-oxo-2,3-dihydro-1,3-benzothiazol-7-yl)ethyl]amino}ethyl)-β-alaninamide bis-trifluoroacetic acid salt], for which, on Adrenergic β2, the EC50 is 20 nM and the “β2 Int Act” value came out at 0.76. Further, the IC50 in assay [1] was 2000 nM. In assay [2], the IC50 is 794 nM.

In the case of `O=C(CCNCCc1ccc(F)cc1)N(CCNCCc1ccc(O)c2[nH]c(=O)sc12)CC12CC3CC(CC(C3)C1)C2` [Example 61, N^1-(1-Adamantylmethyl)-N^3-[2-(4-fluorophenyl)ethyl]-N^1-(2-{[2-(4-hydroxy-2-oxo-2,3-dihydro-1,3-benzothiazol-7-yl)ethyl]amino}ethyl)-β-alaninamide bis-trifluoroacetic acid salt], on Adrenergic β2, the EC50 is 10 nM. For the same compound, the “β2 Int Act” value at Adrenergic β2 turned out to be 0.79. Besides, the IC50 in assay [1] is 2510 nM; in assay [2] it was 794 nM.

As for `O=C(CCNCCc1ccccc1)N(CCNCCc1ccc(O)c2[nH]c(=O)sc12)C1CCSCC1` [Example 62, N-(2-{[2-(4-Hydroxy-2-oxo-2,3-dihydro-1,3-benzothiazol-7-yl)ethyl]amino}ethyl)-N^3-(2-phenylethyl)-N^1-(tetrahydro-2H-thiopyran-4-yl)-β-alaninamide bis-trifluoroacetic acid salt], on Adrenergic β2, the EC50 was 6.31 nM and the “β2 Int Act” value stood at 0.87. In assay [1], the IC50 was 398 nM. Also, in assay [2], the IC50 is 398 nM.

`CCCC(CCC)N(CCNCCc1ccc(O)c2[nH]c(=O)sc12)C(=O)CCNCCc1cccc(F)c1` [Example 63, N^3-[2-(3-Fluorophenyl)ethyl]-N^1-(2-{[2-(4-hydroxy-2-oxo-2,3-dihydro-1,3-benzothiazol-7-yl)ethyl]amino}ethyl)-N^1-(1-propylbutyl)-β-alaninamide bis-trifluoroacetic acid salt]: the EC50 on Adrenergic β2 is 79.4 nM. In addition, the “β2 Int Act” value at Adrenergic β2 was 0.93. Further, the results for the IC50 in assay [1] and in assay [2] were 2510 nM and 200 nM, respectively.

As for `CCCC(CCC)N(CCNCCc1ccc(O)c2[nH]c(=O)sc12)C(=O)CCNCCc1ccc(F)cc1` [Example 64, N^3-[2-(4-Fluorophenyl)ethyl]-N^1-(2-{[2-(4-hydroxy-2-oxo-2,3-dihydro-1,3-benzothiazol-7-yl)ethyl]amino}ethyl)-N^1-(1-propylbutyl)-β-alaninamide bis-trifluoroacetic acid salt], the EC50 on Adrenergic β2 was 316 nM. Further, the “β2 Int Act” value at Adrenergic β2 is listed as 0.70. Besides, the IC50 was 6310 nM in assay [1] and 200 nM in assay [2].

`CC(C)(CO)CN(CCNCCc1ccc(O)c2[nH]c(=O)sc12)C(=O)CCNCCc1ccccc1Cl` [Example 65, N^3-[2-(2-Chlorophenyl)ethyl]-N^1-(3-hydroxy-2,2-dimethylpropyl)-N^1-(2-{[2-(4-hydroxy-2-oxo-2,3-dihydro-1,3-benzothiazol-7-yl)ethyl]amino}ethyl)-β-alaninamide bis-trifluoroacetic acid salt]: at Adrenergic β2, the EC50 was 12.6 nM and the “β2 Int Act” value is on record as 0.59. In assay [1], the IC50 was 1000 nM. Further, in assay [2], the IC50 was 398 nM.

In the case of `CC(C)(CO)CN(CCNCCc1ccc(O)c2[nH]c(=O)sc12)C(=O)CCNCCc1cccc(Cl)c1` [Example 66, N^3-[2-(3-Chlorophenyl)ethyl]-N^1-(3-hydroxy-2,2-dimethylpropyl)-N^1-(2-{[2-(4-hydroxy-2-oxo-2,3-dihydro-1,3-benzothiazol-7-yl)ethyl]amino}ethyl)-β-alaninamide bis-trifluoroacetic acid salt], at Adrenergic β2, the EC50 is 12.6 nM and the “β2 Int Act” value stood at 0.59. Moreover, the IC50 in assay [1] is 1580 nM. Further, in assay [2], the IC50 was 631 nM.

`CC(C)(CO)CN(CCNCCc1ccc(O)c2[nH]c(=O)sc12)C(=O)CCNCCc1cccc(Cl)c1Cl` [Example 67, N^3-[2-(2,3-Dichlorophenyl)ethyl]-N^1-(3-hydroxy-2,2-dimethylpropyl)-N^1-(2-{[2-(4-hydroxy-2-oxo-2,3-dihydro-1,3-benzothiazol-7-yl)ethyl]amino}ethyl)-β-alaninamide bis-trifluoroacetic acid salt]: at Adrenergic β2, the EC50 was 20 nM and the “β2 Int Act” value is recorded as 0.70. Further, the IC50 in assay [1] was 1000 nM. Moreover, the IC50 in assay [2] is 158 nM.

The values are drawn from US20100022491A1, “4-HYDROXY-2-OXO-2,3-DIHYDRO-1,3-BENZOTHIAZOL-7YL COMPOUNDS FOR MODULATION OF B2-ADRENORECEPTOR ACTIVITY” (ASTRAZENECA AB, priority 2006, published 2010).
